# How the values were obtained:
# Experiment in all cases: ≥ marks a high value that may be exact or a test limit, other limits are often not marked, values filed in µg/mL are converted to µM
# [1] = test system: Klebsiella pneumoniae ATCC 700603
# [2] = test system: Escherichia coli ATCC 25922
# [3] = test system: Staphylococcus epidermidis ATCC 12228
# [4] = test system: Bacillus subtilis ATCC 6633
# [5] = test system: Staphylococcus aureus ATCC 25923
# [6] = test system: Pseudomonas aeruginosa ATCC 27853
# [7] = test system: Staphylococcus aureus ATCC 29213
# [8] = test system: Candida albicans ATCC 90028
# [9] = test system: Candida albicans ATCC 10231
Structure (SMILES),MIC [1] [µM],MIC [2] [µM],MIC [3] [µM],MIC [4] [µM],MIC [5] [µM],MIC [6] [µM],MIC [7] [µM],MIC [8] [µM],MIC [9] [µM]
CC(=O)N[C@@H](CCCCN)C(=O)N[C@@H](Cc1ccccc1)C(=O)N[C@@H](CC(C)C)C(=O)N[C@@H](CCCCN)C(=O)N[C@@H](CC(C)C)C(=O)N[C@@H](CCCCN)C(=O)N[C@@H](Cc1c[nH]c2ccccc12)C(=O)N[C@@H](CC(C)C)C(=O)N[C@@H](CCCCN)C(=O)N[C@@H](CO)C(=O)N[C@@H](Cc1c[nH]c2ccccc12)C(=O)N[C@@H](CCCCN)C(=O)N[C@@H](CC(N)=O)C(=O)N[C@@H](Cc1ccccc1)C(=O)N[C@@H](CCCCN)C(N)=O [KFLKLKWLKSWKNFK],25,12.5,12.5,6.4,50,12.5,–,–,–
CC[C@H](C)[C@H](NC(=O)[C@H](CCCN=C(N)N)NC(=O)[C@H](CCC(N)=O)NC(=O)[C@@H](NC(=O)[C@@H](NC(=O)[C@H](CCCCN)NC(=O)[C@@H](N)CCCCN)[C@@H](C)CC)C(C)C)C(=O)N[C@@H](CCCCN)C(=O)N[C@@H](CC(=O)O)C(=O)N[C@@H](Cc1ccccc1)C(=O)N[C@@H](CC(C)C)C(=O)N[C@@H](CCCN=C(N)N)C(=O)O [KKIVQRIKDFLR],–,5,–,–,–,10,5,10,–
CC[C@H](C)[C@H](NC(=O)[C@H](CCCN=C(N)N)NC(=O)[C@H](C)NC(=O)[C@@H](NC(=O)[C@@H](NC(=O)[C@H](CCCN=C(N)N)NC(=O)[C@@H](N)CCCCN)[C@@H](C)CC)C(C)C)C(=O)N[C@@H](CCCCN)C(=O)N[C@@H](C)C(=O)N[C@@H](Cc1ccccc1)C(=O)N[C@@H](CC(C)C)C(=O)N[C@@H](CCCN=C(N)N)C(=O)O [KRIVARIKAFLR],–,1.25,–,–,–,1.25,2.5,2.5,–
CC[C@H](C)[C@H](NC(=O)[C@H](CCCCN)NC(=O)[C@H](CCC(N)=O)NC(=O)[C@@H](NC(=O)[C@@H](NC(=O)[C@H](CCCN=C(N)N)NC(=O)[C@@H](N)CCCCN)[C@@H](C)CC)C(C)C)C(=O)N[C@@H](CCCCN)C(=O)N[C@@H](CC(=O)O)C(=O)N[C@@H](Cc1ccccc1)C(=O)N[C@@H](CC(C)C)C(=O)N[C@@H](CCCN=C(N)N)C(=O)O [KRIVQKIKDFLR],–,5,–,–,–,10,10,20,–
CC(C)C[C@H](NC(=O)[C@H](CCCN=C(N)N)NC(=O)[C@H](C)NC(=O)[C@@H](NC(=O)[C@H](CCCN=C(N)N)NC(=O)[C@H](CCCN=C(N)N)NC(=O)[C@H](CC(C)C)NC(=O)[C@@H](N)CC(C)C)C(C)C)C(=O)N[C@@H](CC(C)C)C(=O)N[C@@H](CCCCN)C(=O)N[C@@H](CCCN=C(N)N)C(=O)N[C@@H](Cc1ccccc1)C(=O)N[C@@H](C)C(=O)N[C@@H](CCCCN)C(=O)O [LLRRVARLLKRFAK],–,1.15,–,4.6,4.6,1.15,–,–,–

# Results, then the compound that gave them:
MIC [1] [µM],MIC [2] [µM],MIC [3] [µM],MIC [4] [µM],MIC [5] [µM],MIC [6] [µM],MIC [7] [µM],MIC [8] [µM],MIC [9] [µM],Structure (SMILES)
–,> 76.6,–,≥ 76.6,> 76.6,–,–,–,> 76.6,C[C@H](NC(=O)[C@H](Cc1c[nH]c2ccccc12)NC(=O)[C@H](CCCCN)NC(=O)[C@H](Cc1ccccc1)NC(=O)[C@H](CCCN=C(N)N)NC(=O)[C@H](Cc1c[nH]c2ccccc12)NC(=O)[C@@H](N)CCCN=C(N)N)C(=O)N[C@@H](CCCCN)C(=O)N[C@@H](CCCCN)C(=O)O [RWRFKWAKK]
–,–,–,–,–,19.9,23.3,–,> 79.7,CC(C)C[C@H](NC(=O)[C@H](CCCCN)NC(=O)[C@@H]1CCCN1C(=O)[C@H](CC(C)C)NC(=O)[C@H](CC(C)C)NC(=O)[C@@H]1CCCN1C(=O)[C@H](CCCCN)NC(=O)[C@H](CC(C)C)NC(=O)[C@H](CCCCN)NC(=O)[C@@H]1CCCN1C(=O)[C@H](CC(C)C)NC(=O)[C@H](CC(C)C)NC(=O)[C@H](CC(C)C)NC(=O)[C@H](CCCCN)NC(=O)[C@H](CC(C)C)NC(=O)[C@H](CC(C)C)NC(=O)[C@H](CCCCN)NC(=O)[C@@H](N)Cc1ccc(O)cc1)C(N)=O [YKLLKLLLPKLKPLLPKL]

# From DBAASP
